Measured values as given in US20050214285A1, “Epitopes or mimotopes derived from the C-epsilon-3 or C-epsilon-4 domains of IgE, antagonists thereof, and their therapeutic uses” (SmithKline Beecham Biologicals, s.a. and Peptide …, priority 1999, published 2005).
Where two headings read alike, the source gives them in different places. Positions of bridges follow the written chain, without caps; N, C: chain ends. Residues, ends and D or L forms follow the SMILES beside them.

Experiments:
PTmAb0011 [1] = assay: BIAcore affinity to PTmAb0011; type: binding, mouse; conditions: read-out: PTmAb BIAcore KD^Rel (μM) PTmAb0011
From the text: (§1) This involved a DNA sub-cloning transfer from the major coat protein (gVIIIp) filamentous phage display vector to a lower copy number minor phage coat protein (gIIIp) display vector with a random PCR step. […] Included in the tables are ranking orders and also BIAcore affinities where available.
(§2) Thus indicating the importance of correct presentation of the peptides of the present invention to adopt a shape which closely resembles the native target in the context of the whole IgE molecule. [drawing]

PTmAb0005 [2] = assay: BIAcore affinity to PTmAb0005; type: binding
From the text: as §1, §2

PTmAb0005 [3] = assay: Phage display ranking of peptide ligands for PTmAb0005; type: binding; conditions: for Rank (ECL) PTmAb0005: primary phage display biopannings (Table 6); for PTmAb Rank 0005: IgEC67 mutants (Table 8)
Protocol: (§3) Phage display libraries were used to map the binding sites of the monoclonal antibodies using three different phage libraries, displaying either the XCX15, XCX10 or XAX10 peptide sequence (where X is any amino acid) at the N-terminus of the phage gVIIIp. Tables 6 and 7 show the results of selecting for peptide ligands with the anti human IgE monoclonal antibodies […]. […]
This was performed by introducing random mutations by PCR mutagenesis and sub-cloning into the Fuse 5 vector for minor filamentous phage protein gIIIp display. These, and other results, confirmed the importance of the amino acids within IgEC67 which aligned with the Cε2 epitope. […] Mutations in other sites had little effect on the affinity to PTmAb0005.
as §1

PTmAb0011 [4] = assay: Phage display ranking of peptide ligands for PTmAb0011; type: binding, mouse; conditions: IgEC67 mutants (Table 8)
From the text: as §3, §1

[5] = read-out: PTmAb BIAcore KD^Rel (μM) PTmAb0005

Compound	Kd (PTmAb0011 [1])	Kd (PTmAb0005 [2]; [5])	Rank (ECL) PTmAb0005 (PTmAb0005 [3])	PTmAb Rank 0011 (PTmAb0011 [4])	PTmAb Rank 0005 (PTmAb0005 [3])	further results
CSCC[C@H](NC(=O)[C@H](CCC(N)=O)NC(=O)CNC(=O)[C@H](Cc1ccc(O)cc1)NC(=O)[C@@H](NC(=O)[C@H](CC(C)C)NC(=O)[C@H](CS)NC(=O)[C@@H](N)CCC(=O)O)C(C)C)C(=O)N[C@@H](C)C(=O)N[C@@H](CC(=O)O)C(=O)N[C@@H](CS)C(=O)N[C@@H](C)C(=O)N[C@@H](C)C(=O)NCC(=O)NCC(=O)N[C@@H](Cc1c[nH]c2ccccc12)C(=O)N1CCC[C@H]1C(=O)O [IgEC13] (H-ECLVYGQMADCAAGGWP-OH)	> 1000 µM	> 1000 µM	5	–	–	–
CSCC[C@H](NC(=O)[C@H](CCC(N)=O)NC(=O)[C@H](CC(C)C)NC(=O)CNC(=O)[C@H](CCC(=O)O)NC(=O)[C@H](CC(C)C)NC(=O)[C@@H](NC(=O)[C@H](C)NC(=O)[C@H](CC(N)=O)NC(=O)[C@H](CS)NC(=O)[C@@H](N)CCC(N)=O)C(C)C)C(=O)N[C@H](C(=O)N[C@@H](CC(=O)O)C(=O)N[C@@H](Cc1c[nH]cn1)C(=O)N[C@@H](CS)C(=O)N[C@@H](Cc1c[nH]c2ccccc12)C(=O)N[C@@H](CC(N)=O)C(=O)O)C(C)C [IgEC26] (H-QCNAVLEGLQMVDHCWN-OH)	53.4 µM	3 µM	43	–	–	–
CSCC[C@H](NC(=O)[C@H](CCC(=O)O)NC(=O)[C@H](CO)NC(=O)[C@H](CO)NC(=O)[C@@H]1CCCN1C(=O)[C@@H](NC(=O)[C@H](CCSC)NC(=O)[C@H](CCC(N)=O)NC(=O)[C@@H](NC(=O)[C@H](CCC(=O)O)NC(=O)[C@@H]1CCCN1C(=O)[C@H](CC(=O)O)NC(=O)[C@H](C)NC(=O)[C@@H](NC(=O)[C@H](CS)NC(=O)[C@@H](N)CS)C(C)C)[C@@H](C)O)[C@@H](C)O)C(=O)N[C@@H](Cc1ccccc1)C(=O)O [IgEC29] (H-CCVADPETQMTPSSEMF-OH)	> 600 µM	> 600 µM	40	–	–	–
CC[C@H](C)[C@H](NC(=O)[C@H](CCCCN)NC(=O)[C@H](CC(C)C)NC(=O)[C@H](CS)NC(=O)[C@@H](N)CCC(=O)O)C(=O)N[C@@H](CCC(=O)O)C(=O)N[C@@H](CCC(N)=O)C(=O)N[C@@H](CCC(N)=O)C(=O)N[C@@H](CS)C(=O)N[C@@H](C)C(=O)N[C@@H](CC(=O)O)C(=O)N[C@H](C(=O)N[C@H](C(=O)N[C@@H](CCC(=O)O)C(=O)N[C@H](C(=O)N1CCC[C@H]1C(=O)N[C@@H](CCCNC(=N)N)C(=O)O)[C@@H](C)CC)C(C)C)[C@@H](C)CC [IgEC42] (H-ECLKIEQQCADIVEIPR-OH)	> 500 µM	19.4 µM	15	–	–	–
CSCC[C@H](NC(=O)[C@@H](NC(=O)[C@H](Cc1ccccc1)NC(=O)[C@H](CCC(N)=O)NC(=O)[C@H](CCCNC(=N)N)NC(=O)[C@H](CS)NC(=O)[C@@H](N)CCC(N)=O)C(C)C)C(=O)N[C@@H](CC(N)=O)C(=O)N[C@@H](CCC(N)=O)C(=O)N[C@@H](CO)C(=O)N[C@@H](CCC(=O)O)C(=O)N[C@@H](CCCCN)C(=O)N[C@@H](CCC(=O)O)C(=O)N[C@@H](Cc1ccccc1)C(=O)NCC(=O)N[C@@H](CCC(N)=O)C(=O)N[C@@H](CS)C(=O)O [IgEC56] (H-QCRQFVMNQSEKEFGQC-OH)	> 1000 µM	60 µM	0	–	–	–
CC[C@H](C)[C@H](NC(=O)[C@@H]1CCCN1C(=O)[C@H](CC(C)C)NC(=O)CNC(=O)[C@H](CCCNC(=N)N)NC(=O)[C@H](CC(N)=O)NC(=O)[C@@H]1CCCN1C(=O)[C@H](CC(=O)O)NC(=O)[C@H](C)NC(=O)[C@@H]1CCCN1C(=O)[C@H](CO)NC(=O)[C@H](CC(=O)O)NC(=O)[C@H](CO)NC(=O)[C@H](CCSC)NC(=O)[C@H](CS)NC(=O)[C@@H](N)CS)C(=O)N[C@@H](Cc1c[nH]c2ccccc12)C(=O)O [IgEC66] (H-CCMSDSPADPNRGLPIW-OH)	> 600 µM	> 600 µM	0	–	–	–
CSCC[C@@H]1NC(=O)[C@H](Cc2ccccc2)NC(=O)[C@@H](N)CSSC[C@@H](C(=O)N2CCC[C@H]2C(=O)N[C@@H](CCCNC(=N)N)C(=O)N[C@@H](CCC(=O)O)C(=O)O)NC(=O)[C@H](CC(C)C)NC(=O)[C@H](CCC(=O)O)NC(=O)[C@H](CC(C)C)NC(=O)[C@H](CC(=O)O)NC(=O)[C@H](C)NC(=O)[C@H](CC(C)C)NC(=O)[C@H](CCC(N)=O)NC(=O)[C@H](CCCCN)NC(=O)[C@H](CC(N)=O)NC1=O [IgEC67] (H-CFMNKQLADLELCPRE-OH; disulfide 1-13)	4.8 µM	0.1 µM	243	–	–	binding / affinity to PTmAb0005 (PTmAb0005 [3]; IgEC67 and its mutants, gIIIp display): highest affinity
CC(C)[C@H](NC(=O)[C@H](CC(=O)O)NC(=O)[C@H](CO)NC(=O)[C@@H]1CSSC[C@H](NC(=O)[C@@H](N)CO)C(=O)N[C@@H](C)C(=O)N[C@@H](Cc2ccc(O)cc2)C(=O)N[C@@H]([C@@H](C)O)C(=O)N[C@@H](C)C(=O)N[C@@H](CCC(N)=O)C(=O)N[C@@H](CCCNC(=N)N)C(=O)N[C@@H](CCC(N)=O)C(=O)N1)C(=O)N1CCC[C@H]1C(=O)N[C@@H](CC(N)=O)C(=O)N1CCC[C@H]1C(=O)NCC(=O)O [IgEC69] (H-SCAYTAQRQCSDVPNPG-OH; disulfide 2-10)	6.4 µM	6.6 µM	11	–	–	–
CSCC[C@@H]1NC(=O)[C@H](C(C)C)NC(=O)[C@H](CCC(N)=O)NC(=O)CNC(=O)[C@H](CC(=O)O)NC(=O)[C@H](CCC(=O)O)NC(=O)[C@H](CC(C)C)NC(=O)[C@@H](NC(C)=O)CSSC[C@@H](C(=O)N2CCC[C@H]2C(=O)N[C@@H](CCCNC(=N)N)C(=O)N[C@@H](CCC(=O)O)C(=O)N[C@@H](C)C(=O)N[C@@H](C)C(=O)N[C@@H](CCC(=O)O)C(=O)NCC(=O)N[C@@H](CC(=O)O)C(=O)N[C@@H](CCCCNC(C)=O)C(N)=O)NC(=O)[C@H](CC(C)C)NC(=O)[C@H](CC(=O)O)NC(=O)[C@H](C(C)C)NC(=O)[C@H](CC(=O)O)NC1=O [PT1079] (Ac-CLEDGQVMDVDLCPREAAEGDK(Ac)-NH2; disulfide 1-13)	–	–	–	–	–	Kd (PTmAb0005 [2]; BIAcore, read-out: apparent affinity to PTmAb0005): 0.02 µM
ADGAACFMNKQMADLELCPRVAAEA [IgEC67-2]	–	–	–	1.8	3.2	–
ADGAECFMNKQLADSELCPRVAAEA [IgEC67-13]	–	–	–	0.8	1.1	–
ADGAGCFINKQLADLELCPREAAEA [IgEC67-12]	–	–	–	1.9	3	–
ADGAGCFINKQLADLELCPRVAAEA [IgEC67-3]	–	–	–	1.7	3	–
ADGAGCFMNKQLADLELCPREAAEA [IgEC67-7]	–	–	–	1	1	–
ADGAGCFMNKQLADLEMCPRDDAEA [IgEC67-9]	–	–	–	2.4	2.7	–
ADGAGCFMNKQLADPELCPREAEEA [IgEC67-4]	–	–	–	1.3	2.4	–
ADGAGCFMNKQLVDLELCPRGAAEA [IgEC67-5]	–	–	–	1.6	1.9	–
ADGAGCFMNKQMADLELCPREAAEA [IgEC67-10]	–	–	–	2.3	4.2	–
ADGAGCFMNKQMADLELCPRTAAEA [IgEC67-1]	–	–	–	2.2	4.1	–
ADGAGCFMNKQMADWEMCPRAAAEA [IgEC67-11]	–	–	–	1.9	1.8	–
ADGAGCFMNKQQADLELCPRGAAEA [IgEC67-14]	–	–	–	0.9	1.2	–
ADGAGCFMNNQLADWELCPRAAAEA [IgEC67-6]	–	–	–	1.6	1.9	–
